According to patent US20190029960A1, “Therapeutic Nanoparticles Having EGFR Ligands and Methods of Making and Using Same” (Pfizer Inc., priority 2016, published 2019):
*1 amine or outer side, *2 acyl side, *3 side chain or, on linkers, in order; H or OH if unused. Where a SMILES comes first, the peptide text is derived from it. Bridges are numbered along the chain shown (N, C = ends). Side-chain parts run from the residue outwards. [ ]: non-standard residue; d: D form. The star is where a group is joined. Trp(5-OMe) = COc1ccc2[nH]cc(C[C@H](N)C(=O)O)c2c1; DBCO = C1#Cc2ccccc2N(*)Cc2ccccc21; Igl = N[C@H](C(=O)O)C1Cc2ccccc2C1; PEG5 = NCCOCCOCCOCCOCCOCCC(=O)O; Pen = CC(C)(S)[C@H](N)C(=O)O; Suc = O=C(CCC(=O)[*:2])[*:1]

How the values were obtained:
recombinant human EGFR [1] = biological target: T1, recombinant human EGFR (Homo sapiens, UniProt P00533); test: P2 competition ELISA (P2-Biotin dimer tracer, 50 nM EGF); format: binding
T1 construct: Fc; purchased R&D Systems
Target sequence in this assay (P00533 with tags, fused parts or gaps limits assumed): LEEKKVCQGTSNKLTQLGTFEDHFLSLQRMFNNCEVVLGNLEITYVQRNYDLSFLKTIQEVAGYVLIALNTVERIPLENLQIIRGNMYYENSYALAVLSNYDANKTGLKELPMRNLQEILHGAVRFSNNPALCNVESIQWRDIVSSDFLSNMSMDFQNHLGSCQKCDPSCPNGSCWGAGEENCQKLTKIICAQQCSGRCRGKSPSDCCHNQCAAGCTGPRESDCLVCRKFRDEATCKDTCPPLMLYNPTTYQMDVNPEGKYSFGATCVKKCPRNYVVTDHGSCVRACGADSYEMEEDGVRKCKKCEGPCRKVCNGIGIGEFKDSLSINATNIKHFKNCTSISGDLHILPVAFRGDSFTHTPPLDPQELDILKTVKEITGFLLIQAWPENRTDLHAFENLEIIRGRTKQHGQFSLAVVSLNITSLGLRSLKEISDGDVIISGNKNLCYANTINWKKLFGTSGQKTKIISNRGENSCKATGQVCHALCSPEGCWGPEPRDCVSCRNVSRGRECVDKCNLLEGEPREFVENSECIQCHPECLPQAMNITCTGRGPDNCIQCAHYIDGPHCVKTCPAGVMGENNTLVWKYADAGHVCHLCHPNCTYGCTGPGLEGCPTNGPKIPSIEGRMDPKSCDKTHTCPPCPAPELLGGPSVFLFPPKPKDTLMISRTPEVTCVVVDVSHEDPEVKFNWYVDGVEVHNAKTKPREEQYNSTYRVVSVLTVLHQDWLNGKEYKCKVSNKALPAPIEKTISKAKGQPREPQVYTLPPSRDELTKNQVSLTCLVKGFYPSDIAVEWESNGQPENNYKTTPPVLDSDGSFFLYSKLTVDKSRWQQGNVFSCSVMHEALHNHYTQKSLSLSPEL
Target sequence in this assay (P01133 971-1023 partner limits assumed): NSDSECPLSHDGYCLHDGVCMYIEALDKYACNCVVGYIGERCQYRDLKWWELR

recombinant human EGFR [2] = biological target: T1, recombinant human EGFR; test: EGF competition ELISA; format: binding
Description: Plates were blocked for 2 h with 2% BSA in PBS at RT. […] Plates were washed three times with PBS containing 0.05% Tween-20 (PBS-T) and then incubated with a 1:10,000 dilution of streptavidin-HRP (Thermo Fisher Scientific) diluted in assay buffer for 90 min at RT. Plates were washed an additional three times with PBS-T, and then incubated with TMB substrate (BioFx) for 15 min at RT. Reactions were stopped with stop solution (BioFx) and absorbance was read at 450 nm in a microplate reader (SpectraMax M5e, Molecular Devices).
Plates were blocked for 2 hours with 2% BSA in PBS at room temperature (RT). […] Peptides were reconstituted as 100% DMSO stocks, resulting in a final concentration of DMSO in the assay of 2% for all samples. Plates were washed three times with PBS containing 0.05% Tween-20 (PBS-T) and then incubated with a 1:10,000 dilution of streptavidin-HRP (Piece) diluted in assay buffer for 90 minutes at RT. Plates were washed an additional three times with PBS-T and then incubated with TMB substrate (BioFx) for 15 minutes at RT. The reaction was stopped with stop solution (BioFx) and absorbance was read at 450 nm in a microplate reader (SpectraMax M5e, Molecular Devices).
Target sequence in this assay (P00533 with tags, fused parts or gaps limits assumed): as the sequence (P00533 with tags, fused parts or gaps limits assumed) above

[3] = biological target: T2, Fc tagged recombinant human EGFR (rhEGFR-Fc) (Homo sapiens, UniProt P00533); format: binding; settings: Without EGF
T2 construct: purchased R&D Systems 344-ER-050
Description: (§1) Surface plasmon resonance (SPR) binding studies were carried out on a Biacore T200 instrument (GE Healthcare). Approximately 10,000 RU of anti-Fc antibody (GE Healthcare, Cat #BR100839) was immobilized via amine coupling on each of flow cells 1 and 2 of a CM5 dextran-coated gold sensor chip (GE Healthcare, Cat #BR100530). […] The contact time and resulting amount of rhEGFR-Fc capture was varied based on the nature of the analyte, namely whether it was a peptide or nanoparticle.
(§2) Peptide binding assays were carried out in 10 mM PBS buffer supplemented with 0.05% surfactant P20 and 5% DMSO by volume, at 25° C. Peptides were injected over the rhEGFR-Fc surface for 60 s, followed by dissociation (buffer injection) for 60 s and regeneration with a 10 s pulse of 3M MgCl2. A fresh rhEGFR-Fc surface was generated for each concentration of each peptide tested. Peptide binding data was analyzed by fitting to a 1:1 Langmuir kinetic model to obtain the on-rate (ka), off-rate (kd) and/or equilibrium binding constant (KD) of the interaction.

EGF bound EGFR = biological target: T3, EGF bound EGFR (Homo sapiens, UniProt P00533); test: SPR peptide binding, rhEGF pre-injected; settings: With EGF
T3 construct: purchased R&D Systems 344-ER-050 (rhEGFR-Fc); 236-EG (rhEGF)
Description: as §1, §2

T2 sequence (P00533 with tags, fused parts or gaps limits assumed): as above
T3 sequence (P00533 with tags, fused parts or gaps limits assumed): as above
T3 sequence (P01133 971-1023 partner limits assumed): as the sequence (P01133 971-1023 partner limits assumed) above

COc1ccc2[nH]cc(C[C@@H]3NC(=O)[C@H](C(C)C)NC(=O)[C@H](CCC(=O)O)NC(=O)[C@H](C4Cc5ccccc5C4)NC(=O)[C@H]([C@@H](C)O)NC(=O)[C@@H](NC(=O)[C@H](C)NC(=O)[C@H](CC(=O)O)NC(C)=O)C(C)(C)SSC(C)(C)[C@@H](C(=O)N[C@@H](CC(C)C)C(=O)N[C@@H](CCC(N)=O)C(=O)NCC(=O)NCC(=O)N[C@@H](CCCCNC(=O)CCOCCOCCOCCOCCOCCNC(=O)CCC(=O)N4Cc5ccccc5C#Cc5ccccc54)C(N)=O)NC(=O)[C@H](CCC(=O)O)NC(=O)[C@H](CCCNC(=N)N)NC(=O)CNC3=O)c2c1 [P2-2/55/102, Ac-DAPenT(2Ind)GEV(5MeO)WGREPenLQGGK(DBCO)-CONH2] (Ac-DA[Pen]T[Igl]EV[Trp(5-OMe)]GRE[Pen]LQGGK([PEG5-Suc-DBCO])-NH2; disulfide 3-12)
IC50 (recombinant human EGFR [1]): 609 nM

COc1ccc2[nH]cc(C[C@@H]3NC(=O)[C@H](C(C)C)NC(=O)[C@H](CCC(=O)O)NC(=O)[C@H](C4Cc5ccccc5C4)NC(=O)[C@H]([C@@H](C)O)NC(=O)[C@@H](NC(=O)[C@@H]4CCCN4C(=O)[C@H](CC(=O)O)NC(C)=O)C(C)(C)SSC(C)(C)[C@@H](C(=O)N[C@@H](CC(C)C)C(=O)N[C@@H](CCC(N)=O)C(=O)NCC(=O)NCC(=O)N[C@@H](CCCCNC(=O)CCOCCOCCOCCOCCOCCNC(=O)CCC(=O)N4Cc5ccccc5C#Cc5ccccc54)C(N)=O)NC(=O)[C@H](CCC(=O)O)NC(=O)[C@H](CCCNC(=N)N)NC(=O)CNC3=O)c2c1 [P2-55/102, Ac-DPPenT(2Ind)GEV(5MeO)WGREPenLQGGK(DBCO)-CONH2] (Ac-DP[Pen]T[Igl]EV[Trp(5-OMe)]GRE[Pen]LQGGK([PEG5-Suc-DBCO])-NH2; disulfide 3-12)
IC50 (recombinant human EGFR [1]): 829 nM

CC[C@H](C)[C@H](NC(=O)[C@@H]1CSSC[C@H](NC(=O)[C@H](CCC(=O)O)NC(=O)[C@H](CO)NC(C)=O)C(=O)N[C@@H](Cc2ccccc2)C(=O)N2CCC[C@H]2C(=O)N[C@@H](C)C(=O)N[C@@H](C)C(=O)N2CCC[C@H]2C(=O)N[C@@H](CC(=O)O)C(=O)N[C@@H](Cc2c[nH]c3ccccc23)C(=O)N[C@@H](CC(C)C)C(=O)N[C@@H](CO)C(=O)N1)C(=O)N[C@@H](CC(C)C)C(=O)NCC(=O)NCC(=O)N[C@@H](CCCCNC(=O)CCOCCOCCOCCOCCOCCNC(=O)CCC(=O)N1Cc2ccccc2C#Cc2ccccc21)C(N)=O [Peptide P1-3]
IC50 (recombinant human EGFR [2]): 4100 nM

CC(=O)N[C@@H](CC(=O)O)C(=O)N1CCC[C@H]1C(=O)N[C@H]1CSSC[C@@H](C(=O)N[C@@H](CC(C)C)C(=O)N[C@@H](CCC(N)=O)C(=O)NCC(=O)NCC(=O)N[C@@H](CCCCNC(=O)CCOCCOCCOCCOCCOCCNC(=O)CCC(=O)N2Cc3ccccc3C#Cc3ccccc32)C(N)=O)NC(=O)[C@H](CCC(=O)O)NC(=O)[C@H](CCCNC(=N)N)NC(=O)CNC(=O)[C@H](Cc2c[nH]c3ccccc23)NC(=O)[C@H](C(C)C)NC(=O)[C@H](CCC(=O)O)NC(=O)[C@H](Cc2c[nH]c3ccccc23)NC(=O)[C@H]([C@@H](C)O)NC1=O [Peptide P2]
kd [3]: 9 ± 2 × 10^−3 s^−1 | kd (EGF bound EGFR): 7 ± 2 × 10^−3 s^−1
